Test results as given in patent US20090047365A1, “Novel Concomitant Use of Sulfonamide Compound with Anti-Cancer Agent” (Eisai R & D Management Co., Ltd., priority 2005, published 2009).
Values joined by “and” are separate entries in the source; they are usually repeats but may differ in a detail not shown here. Equal entries are not always repeated. Structures can show the parent of a compound that is named as a salt. Where two headings read alike, the source gives them in different places.

Key:
[1] = system: Human umbilical vein endothelial cell (HUVEC); assay: vascular endothelial cell lumen formation assay (in vitro), combinational use of E7820 and anti-cancer drug; format: cell-based
Procedure: Four-hundred μl of type I collagen gel (Nitta Gelatin) was dispensed in a 24-well plate (FALCON) and left in a CO2 incubator at 37° C. for 40 minute for gelatinization. A serum-free medium (Human endothelial-SFM Basal Growth Medium, Invitrogen) containing 20 ng/ml EGF (GIBCO BRL) was prepared. Two-hundred μl of this solution was dispensed in the wells containing type I collagen gel. Human umbilical vein endothelial cell (HUVEC) line was suspended in a serum-free medium (Human endothelial-SFM Basal Growth Medium, GIBCO BRL) to prepare 5×10^5 cells/ml cell suspension. Two-hundred μl of this suspension was seeded on the wells containing the type I collagen gel and the serum-free medium and cultured overnight.
On the following day, the wells were overlaid with 400 μl of type I collagen gel and left in a CO2 incubator at 37° C. for 3 hours for gelatinization. Then, the serum-free media (containing 10 ng/ml EGF and 20 ng/ml VEGF (Genzyme Techne Corp.)) containing E7820 alone, containing an anti-cancer drug alone and containing both E7820 and the anti-cancer drug for combinational use were added for 1.5 ml each and further cultured in a CO2 incubator at 37° C. for 3 days.
After the cultivation, 400 μl of 3.3 mg/ml MTT (SIGMA) solution was dispensed in the wells and reacted in a CO2 incubator at 37° C. for 3 hours for the cells to develop color.

[2] = system: Human umbilical vein endothelial cells; assay: vascular endothelial cell proliferation assay (in vitro), combinational use of E7820 and anti-cancer drug; format: cell-based
Procedure: These diluted solutions were added to the cultured wells for 100 μl/well for further cultivation.

HCT116 cells = assay: DNA microarray analysis (Example 8), correlation coefficients and hierarchical cluster analysis; format: cell-based, human; settings: 24 hours treatment at twice the 50% growth inhibitory concentration, similarity among the compounds named together
Procedure: HCT116 cells were cultured in an RPMI-1640 medium supplemented with 10% fetal bovine serum, 100 units/ml penicillin and 100 μg/ml streptomycin. The following cultivation and compound treatment were carried out in an incubator at 5% CO2 and 37° C. HCT116 cells were seeded in 10 cm-diameter cell culture dishes at 2.0×10^6 cells/dish, cultured for 24 hours and subjected to the following compound treatment.
In this example, changes in the gene expression of HCT116 cells upon treatments with 12 compounds, i.e., E7820 (0.16 μM), E7070 (0.26 μM), LY186641 (59 μM), LY295501 (24 μM), LY-573636 (9.6 μM), CQS (4.0 μM), MST16 (100 μM), etoposide (3.6 μM), ethoxzolamide (410 μM), capsaicin (280 μM), trichostatin A (0.16 μM) and kenpaullone (7.1 μM) were examined.
The concentration of each compound used for the treatment was set to twice the 50% growth inhibitory concentration of each compound to the HCT116 cells (based on three days of antiproliferatrive activity using MTT). The cells were collected 24 hours after the treatment at the concentration indicated in parentheses following each compound name above. Similarly, cells cultured for 24 hours without the addition of any compound were also collected.
Total RNA extraction from the collected cells was performed using TRIZOL reagent (Invitrogen) according to the attached instruction.
Gene expression analysis using a DNA microarray was carried out in the same manner as “(2) Analysis of gene expression using DNA microarray” in Example 7.
This example was conducted for each sample in duplicate (for the convenience of the experiment, samples were given branch numbers like control-1, control-2, E7070-1, E7070-2 and so on for distinction). Then, GeneChip (Affymetrix) system (Human Focus array) was used for analyzing changes in the gene expression induced by each compound.
Twenty-six “.cel” files obtained in this example (13 samples (a control+12 compounds)×2) were subjected to RMA method (robust multi-array average method (Biostatistics (2003), 4, 249-264)) for normal distribution at probe level, and then the logarithm value of the signal intensity at gene level was calculated. Next, the logarithm value of the signal intensity of the untreated group (control-1) was subtracted from the logarithm value of the signal intensity of the compound-treated group for each gene to obtain the logarithm value of the signal ratio of the compound-treated group to control-1. Then, cosine correlation coefficients were calculated as correlation coefficients between the experiments (FIG. 5). Based on these correlation coefficients, hierarchical cluster analysis was performed according to UPGMA method (Unweighted Pair Group Method with Arithmetic mean method) (FIG. 6). Control-2 was also subjected to similar calculation (FIGS. 7 and 8). The softwares used were R 2.0.1 (http://www.r-project.org/) and affy package 1.5.8 (http://www.bioconductor.org).

HCT116-C9 = assay: cell growth inhibition assay (MTT), parent line of E7070-resistant lines; format: cell-based, human; settings: HCT116-C9, 72 hours, Example 11, read-out: antiproliferative activity IC50
Procedure: An E7070-resistant cell line was used to assess the antiproliferative activities of E7820, LY186641, LY295501, LY-ASAP and CQS. HCT116-C9 was a substrain separated from human colon cancer-derived HCT116 (American Type Culture Collection, Manassas, Va., U.S.A.). This HCT116-C9 was cultured in the presence of E7070 while incrementally increasing the E7070 concentration, thereby obtaining E7070-resistant substrains HCT116-C9-C1 and HCT116-C9-C4 (Molecular Cancer Therapeutics, 2002, 1, 275-286).
Three cell lines, i.e., HCT116-C9, HCT116-C9-C1 and HCT116-C9-C4, were each seeded at 3000 cells/well onto a 96-well microplate (flat bottom) (50 μl/well). Twenty-four hours later, they were added with a 3-fold dilution series of each compound (50 μl/well). Seventy-two hours later, the antiproliferative activities were assessed by MTT method (Mossmann T., J. Immunol. Methods, 1983, 65, 55-63). The 50% growth inhibitory concentrations to the cancer cells were obtained by a least square method.
In exactly the same manner as in Example 10, an E7070-resistant cell line was used to assess the antiproliferative activities of LY573636 as well as those of E7070.

[3] = combined with E7820, fa 0.6, HUVEC proliferation
[4] = combined with E7820, fa 0.7, HUVEC proliferation
[5] = combined with E7820, fa 0.8, HUVEC proliferation
[6] = combined with E7820, fa 0.9, HUVEC proliferation
[7] = combined with E7820, fa 0.95, HUVEC proliferation

| Compound | Combined effect ([1]; combined with E7820, fa 0.3) | Combined effect ([1]; combined with E7820, fa 0.4) | Combined effect ([1]; combined with E7820, fa 0.5) | Combined effect ([1]; combined with E7820, fa 0.6) | Combined effect ([1]; combined with E7820, fa 0.7) | Combined effect ([1]; combined with E7820, fa 0.8) | Combined effect ([1]; combined with E7820, fa 0.9) | Combined effect ([1]; combined with E7820, fa 0.95) | Combined effect [2, 4] | Combined effect [2, 5] | Combined effect [2, 6] | Combined effect [2, 7] | changes in gene expression (correlation coefficients, hierarchical cluster analysis) (HCT116 cells) | other results |
| --- | --- | --- | --- | --- | --- | --- | --- | --- | --- | --- | --- | --- | --- | --- |
| N.N.[Cl][Pt][Cl] [Cisplatin, cis-diamminedichloroplatinum II] | Synergistic | Synergistic | Synergistic | Synergistic | Synergistic | Synergistic | Synergistic | Synergistic | Synergistic | Synergistic | Synergistic | Synergistic | – | Combination index (CI) ([1]; combined with E7820, fa 0.05): 0.7; Combined effect ([1]; combined with E7820, fa 0.05): Synergistic; Combination index (CI) ([1]; combined with E7820, fa 0.1): 0.6; Combined effect ([1]; combined with E7820, fa 0.1): Synergistic; Combination index (CI) ([1]; combined with E7820, fa 0.2): 0.6; Combined effect ([1]; combined with E7820, fa 0.2): Synergistic; Combination index (CI) ([1]; combined with E7820, fa 0.3): 0.6; Combination index (CI) ([1]; combined with E7820, fa 0.4): 0.5; Combination index (CI) ([1]; combined with E7820, fa 0.5): 0.5; Combination index (CI) ([1]; combined with E7820, fa 0.6): 0.5; Combination index (CI) ([1]; combined with E7820, fa 0.7): 0.5; Combination index (CI) ([1]; combined with E7820, fa 0.8): 0.5; Combination index (CI) ([1]; combined with E7820, fa 0.9): 0.5; Combination index (CI) ([1]; combined with E7820, fa 0.95): 0.4; Combined effect [2, 3]: Synergistic; Combination index (CI) [2, 4]: 0.7; Combination index (CI) [2, 5]: 0.5; Combination index (CI) [2, 6]: 0.4; Combination index (CI) [2, 7]: 0.3; Combination index (CI) ([2]; combined with E7820, fractional inhibition (fa) 0.6, HUVEC proliferation): 0.9 |
| Nc1ccn([C@@H]2O[C@H](CO)[C@@H](O)C2(F)F)c(=O)n1 [Gemcitabine, 2′-deoxy-2′,2′-difluoro-cytidine hydrochloride] | Synergistic | Synergistic | Synergistic | Synergistic | Synergistic | Synergistic | Synergistic | Synergistic | – | Synergistic | Synergistic | – | – | – |
| CN(Cc1cnc2nc(N)nc(N)c2n1)c1ccc(C(=O)N[C@@H](CCC(=O)O)C(=O)O)cc1 [Methotrexate, N-{4-[N-(2,4-diaminopteridin-6-ylmethyl)-N-methylamino]benzoyl}-L-glutamic acid] | – | – | – | – | – | – | – | – | – | – | Synergistic | Synergistic | – | – |
| O=C(NS(=O)(=O)c1ccc(Br)s1)c1ccc(Cl)cc1Cl [LY573636, N-(2,4-dichlorobenzoyl)-5-bromothiophene-2-sulfonamide] | – | – | – | – | – | – | – | – | – | – | – | – | very similar genetic alterations | – |
| O=C(Nc1ccc(Cl)cc1)NS(=O)(=O)c1ccc2c(c1)CCC2 [LY186641, N-[[(4-chlorophenyl)amino]carbonyl]-2,3-dihydro-1H-indene-5-sulfonamide] | – | – | – | – | – | – | – | – | – | – | – | – | very similar genetic alterations | – |
| O=C(Nc1ccc(Cl)c(Cl)c1)NS(=O)(=O)c1ccc2c(c1)CCO2 [LY295501, N-[[(3,4-dichlorophenyl)amino]carbonyl]-2,3-dihydrobenzofuran-5-sulfonamide] | – | – | – | – | – | – | – | – | – | – | – | – | very similar genetic alterations | – |
| CC(=O)O[C@H]1C(=O)[C@@]2(C)[C@H]([C@H](OC(=O)c3ccccc3)[C@]3(O)C[C@H](OC(=O)[C@H](O)[C@@H](NC(=O)c4ccccc4)c4ccccc4)C(C)=C1C3(C)C)[C@]1(OC(C)=O)CO[C@@H]1C[C@@H]2O [Paclitaxel, (−)-(1S, 2R, 3S, 4S, 5R, 7S, 8S, 10R, 13S)-4,10-diacetoxy-2-benzoyloxy-5,20-epoxy, 1,7-dihydroxy-9-oxotax-11-en-13-yl (2S,3S)-3-benzoylamino-2-hydroxy-3-phenylpropionate] | – | – | – | – | Synergistic | Synergistic | Synergistic | Synergistic | Synergistic | Synergistic | Synergistic | Synergistic | – | – |
| Nc1ccc(S(=O)(=O)Nc2cnc3c(Cl)cccc3n2)cc1 [CQS, 2-sulfanylamide-5-chloroquinoxaline] | – | – | – | – | – | – | – | – | – | – | – | – | very similar genetic alterations | – |
| NS(=O)(=O)c1ccc(S(=O)(=O)Nc2cccc3c(Cl)c[nH]c23)cc1 [E7070, N-(3-chloro-1H-indole-7-yl)-4-sulfamoylbenzenesulfonamide] | – | – | – | – | – | – | – | – | – | – | – | – | very similar genetic alterations | IC50 (HCT116-C9): 127 nM |
| 10-[(3-amino-2,3,6-trideoxy-α-L-lyxo-hexopyranosyl)oxy]-7,8,9,10-tetrahydro-6,8,11-tri hydroxy-8-(hydroxyacetyl)-1-methoxy-(8S-cis)-5,12-naphthacenedione [Doxorubicin] | Synergistic | Synergistic | Synergistic | Synergistic | Synergistic | Synergistic | Synergistic | Synergistic | Synergistic | Synergistic | Synergistic | Synergistic | – | Combined effect ([1]; combined with E7820, fa 0.2): Synergistic; Combined effect [2, 3]: Synergistic |
| CCc1c2c(nc3ccc(O)cc13)-c1cc3c(c(=O)n1C2)COC(=O)[C@]3(O)CC [SN38, 7-ethyl-10-hydro-(20)S-Camptothecin] | Synergistic | Synergistic | Synergistic | Synergistic | Synergistic | Synergistic | Synergistic | Synergistic | Synergistic | Synergistic | Synergistic | Synergistic | – | Combination index (CI) [2]: 0.6 and 0.5 and 0.8; Combined effect [2, 3]: Synergistic |
